# BindingDB's records for patent US20250270222 (Satellos Bioscience, 2025)
# Experiments:
# [1] = target: T1, Cyclin-G-associated kinase [25-335] (Human, UniProt O14976); test: GAK pSENs Assay
# T1 construct: 25-335
# T1 sequence (O14976 whole entry): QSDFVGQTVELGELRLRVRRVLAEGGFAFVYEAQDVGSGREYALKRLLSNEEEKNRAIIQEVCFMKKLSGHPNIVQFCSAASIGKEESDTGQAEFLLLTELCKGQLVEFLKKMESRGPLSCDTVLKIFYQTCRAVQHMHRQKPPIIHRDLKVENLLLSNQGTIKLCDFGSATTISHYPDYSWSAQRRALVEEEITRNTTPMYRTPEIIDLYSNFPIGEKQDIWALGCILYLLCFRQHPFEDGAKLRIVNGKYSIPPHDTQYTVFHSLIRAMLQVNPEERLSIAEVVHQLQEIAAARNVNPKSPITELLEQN
# Description: This example describes one illustrative method for determining the IC50 of the compounds of the present invention against GAK (amino acids Q25-N335).
# [2] = target: T2, BMP-2-inducible protein kinase [38-345,K320A,K321A] (Human, UniProt Q9NSY1, K320A/K321A); test: BIKE pSENs Assay
# T2 construct: 38-345
# T2 sequence (Q9NSY1 38-345 K320A/K321A): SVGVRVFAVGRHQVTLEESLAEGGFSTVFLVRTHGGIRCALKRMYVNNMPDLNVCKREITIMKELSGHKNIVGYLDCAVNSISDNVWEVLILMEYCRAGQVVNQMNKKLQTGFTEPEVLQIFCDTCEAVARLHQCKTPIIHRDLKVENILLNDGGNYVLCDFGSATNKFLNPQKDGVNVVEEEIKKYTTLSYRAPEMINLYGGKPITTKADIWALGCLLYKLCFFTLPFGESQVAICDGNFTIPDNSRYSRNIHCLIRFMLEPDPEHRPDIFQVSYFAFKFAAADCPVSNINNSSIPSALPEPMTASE
# Protocol: BIKE protein was dissolved at 20 nM in 1× enzyme solution (50 mM HEPES pH7.5, 10 mM MgCl2, 1 mM DTT, 1% glycerol, 0.5 mM EGTA, 0.01% Briji35, 0.02% BSA) and 12.5 ul was incubated with 250 nl DMSO or 250 nl compound in DMSO at 25° C. for 15 min. The reaction was started by addition of 12.5 ul of 30 uM AQT0759 (Assayquant, CSKS-AQT0759B) and 40 uM ATP which were diluted in 1× substrate dilution buffer (50 mM HEPES pH7.5, 10 mM MgCl2. 1 mM DTT, 1% glycerol, 0.5 mM EGTA, 0.01% Briji35).
compound,measurement,setting,value
"CN(CCN1C[C@@H](OC(=O)N2CCN(c3ccn4ncc(-c5cccnc5OC5CC5)c4n3)CC2)CC1=O)C(=O)OC(C)(C)C [US20250270222, Compound I-35]",IC50,[1],> 1500 nM
same,IC50,[2],> 1500 nM
